“Also recorded” adds a separate entry of the source. *1 amine or outer side, *2 acyl side, *3 side chain or, on linkers, in order; H or OH if unused. Where a SMILES comes first, the peptide text is derived from it. Bridges are numbered along the chain shown (N, C = ends). The star is where a group is joined. X1 = NC(=O)Cc1cc(=O)oc2cc(NC(=O)[C@@H]3CCCN3C(=O)Cn3nc(C[*:1])cc3C[*:2])ccc12; X2 = NC(=O)Cc1cc(=O)oc2cc(NC(=O)[C@@H]3CCCN3C(=O)Cn3nc(C[*:2])cc3C[*:1])ccc12; AMC = Cc1cc(=O)oc2cc(N*)ccc12; Cbz = O=C(OCc1ccccc1)*
System: HEK293 Tet-Off cells with inducible FAPα expression
Assay: Live-cell substrate assay
Type: cell-based
Details: triplicate; for substrate cleavage in cells (mean slope RFU per minute), in words: HEK293 FAP+ vs doxycycline-suppressed FAP- cells, 1400 cells per well in PBS, 200 μM substrate, 37 °C, 90 min; for substrate cleavage in cells after inhibitor pre-treatment, in words: cells pre-treated 30 min at 37 °C with 1 μM UAMC-1100 (FAPα) or VbP (DPP4) before 200 μM substrate
Experimental: 7.5. The following commercial substrates were used: zGP-AMC (Bachem,Catalog No.: […]
conducted in Greiner Bio-One black microplates of 384 wells and polystyrene F-bottom (Catalog No.: 784076). All compounds were dissolved in DMSO at a concentration of 10 mM and then diluted into the respective buffer to the desired final concentration. […]
ACC substrates. […]
HEK tet-off FAPα stable clonal cell line, received from the group of Jan Konvalinka, IOCB Prague, was cultured in IMDM medium with L-glutamine (Sigma-Aldrich, 51471C-1000ML), and supplemented with 10% […] and antibiotics – Geneticin G418 400 μg/ml (Roche, G418-RO) and Puromycin 0.5 μg/ml (Corning, MT61385RA) or Doxycycline 100 ng/ml (Sigma-Aldrich, D9891-1G). In general, cells were passaged at least two times after thawing before their use in cellular […]
assays. FAPα expression was suppressed with Doxycycline for at least a week prior to an […]
Live-cell substrate assay
Cells were grown to near confluency and harvested via trypsinization. After dissociation, extra media with serum was added to prevent further trypsinization. To collect the cells, those were centrifuged for 3 min at 500G and media removed. Cells were washed a total of three times with PBS and resuspended in PBS to 100 cells per μL. To perform the activity assay 14 μL of suspended cells in PBS (100 cell/μL) were plated in a black 384-well low volume “V” bottom plate (total of 1400 cells per well) and pre-treated with 2 μL of either vehicle or inhibitors (1 μM final concentration) for 30 min at 37 °C. DMSO was used as the vehicle. The inhibitors used were […]
DPP4 activity, respectively, in addition to other homologous proteases. After this time, 4 μL of the desired substrate was added to a final concentration of 200 μM and the fluorescence was recorded immediately. Fluorescence was measured using a Cytation 3 plate reader (BioTek). All experiments have at least three technical replicates. All assays were conducted at 37°C for 90 min, unless otherwise noted. Fluorescence measurements were performed at ex/em, 355/460 nm for ACC substrates. The substrates velocity was quantified by calculating the slope of the linear […]
3.2 Phage Display Methodology
The library and panning protocol was adapted from Ekanayake et. al.2 […]
The phage encoded library has the terminal sequence AACXXXXXXXCG. The complexity of the library is 1x109. In general a minimum of 5x1010 PFU were used for panning to have 50 copies of each sequence represented at the beginning of panning.
General reagents for phage display
15.5 g of 2X YT broth (1.6% tryptone, 1.0% yeast extract, 0.5% sodium chloride) 500mL of MilliQ water in a 2L flask, autoclaved.
YT media with 30 μg/mL final concentration of chloramphenicol (CA)
15.5 g of 2X YT broth (1.6% tryptone, 1.0% yeast extract, 0.5% sodium chloride) 500 mL of MilliQ water in a 2L flask, autoclaved. Let it cool to room temperature. Add 500 μL of 30 mg/mL chloramphenicol in ethanol.
Agar plates of YT media with chloramphenicol (30 μg/mL CA)
Weight out 31 g of 2X YT broth (1.6% tryptone, 1.0% yeast extract, 0.5% sodium chloride), 15 g of agar and add 1000 mL of MilliQ water. Autoclave. Let it cool down to approximately 55°C and add 1000 μL of 30 mg/mL CA in ethanol. Mix and pour into plates under sterile conditions.

Structure (SMILES): CC(C)[C@@H]1NC(=O)[C@@H](N)CSCc2cc(n(CC(=O)N3CCC[C@H]3C(=O)Nc3ccc4c(CC(N)=O)cc(=O)oc4c3)n2)CSC[C@@H](C(=O)NCC(N)=O)NC(=O)[C@H](CC(=O)O)NC(=O)[C@H](C)NC(=O)[C@H](CC(N)=O)NC(=O)[C@H](CCC(N)=O)NC(=O)[C@H](Cc2ccccc2)NC(=O)[C@H](CO)NC1=O [FAP-33.2A6] (H-CVSFQNADCG-NH2; linker 1-9 via X1; N-terminus assumed)
- substrate cleavage in cells (mean slope RFU per minute), in words: selectively cleaved in FAP+ cells
- substrate cleavage in cells after inhibitor pre-treatment, in words: hydrolysis suppressed by the FAPα inhibitor UAMC1100 but not by the DPP4 inhibitor VbP

Structure (SMILES): CC(C)C[C@@H]1NC(=O)[C@H](CC(N)=O)NC(=O)[C@H](CCC(N)=O)NC(=O)[C@H](Cc2ccccc2)NC(=O)[C@H](CO)NC(=O)[C@H](C(C)C)NC(=O)[C@@H](N)CSCc2cc(nn2CC(=O)N2CCC[C@H]2C(=O)Nc2ccc3c(CC(N)=O)cc(=O)oc3c2)CSC[C@@H](C(=O)NCC(N)=O)NC(=O)[C@H](CC(=O)O)NC1=O [FAP-33.2] (H-CVSFQNLDCG-NH2; linker 1-9 via X2; N-terminus assumed)
- substrate cleavage in cells (mean slope RFU per minute), in words: no activity in cells

Structure (SMILES): Cc1cc(=O)oc2cc(NC(=O)[C@@H]3CCCN3C(=O)CN)ccc12 [GP-AMC] (H-Gly-Pro-{AMC})
- substrate cleavage in cells after inhibitor pre-treatment, in words: produced signals in HEK cells even when target proteases were chemically inhibited

Structure (SMILES): Cc1cc(=O)oc2cc(NC(=O)[C@@H]3CCCN3C(=O)CNC(=O)OCc3ccccc3)ccc12 [zGP-AMC] (Cbz-Gly-Pro-{AMC})
- substrate cleavage in cells after inhibitor pre-treatment, in words: processed in the presence of both inhibitors; also recorded: produced signals in HEK cells even when target proteases were chemically inhibited

Reference: publication PMC12314892, “Macrocyclic Phage Display for Identification of Selective Protease Substrates” (Journal of the American Chemical Society, 2025)
